Source: the NIST ThermoML archive (doi:10.1016/j.jct.2010.10.018)

Test: xn = mol fraction of the nth substance listed
Settings: 101 kPa, Liquid, Vibrating tube method

CC(C)(C)O [2-methylpropan-2-ol] + O
Settings | mass density [kg/m3]
274.15 K, x1 = 0.00089 | 999.21
274.15 K, x1 = 0.00146 | 998.81
274.15 K, x1 = 0.00269 | 997.91
274.15 K, x1 = 0.00403 | 997.02
274.15 K, x1 = 0.00513 | 996.3
274.15 K, x1 = 0.00761 | 994.82
274.15 K, x1 = 0.01051 | 993.19
274.15 K, x1 = 0.01405 | 991.42
274.15 K, x1 = 0.01793 | 989.78
274.15 K, x1 = 0.02241 | 988.11
274.15 K, x1 = 0.03005 | 985.71
274.15 K, x1 = 0.04242 | 982.79
274.15 K, x1 = 0.08929 | 966.2
275.15 K, x1 = 0.00089 | 999.25
275.15 K, x1 = 0.00146 | 998.85
275.15 K, x1 = 0.00269 | 997.96
275.15 K, x1 = 0.00403 | 997.06
275.15 K, x1 = 0.00513 | 996.34
275.15 K, x1 = 0.00761 | 994.84
275.15 K, x1 = 0.01051 | 993.21
275.15 K, x1 = 0.01405 | 991.44
275.15 K, x1 = 0.01793 | 989.78
275.15 K, x1 = 0.02241 | 988.08
275.15 K, x1 = 0.03005 | 985.63
275.15 K, x1 = 0.04242 | 982.59
275.15 K, x1 = 0.08929 | 965.24
276.15 K, x1 = 0.00089 | 999.28
276.15 K, x1 = 0.00146 | 998.89
276.15 K, x1 = 0.00269 | 997.99
276.15 K, x1 = 0.00403 | 997.09
276.15 K, x1 = 0.00513 | 996.36
276.15 K, x1 = 0.00761 | 994.86
276.15 K, x1 = 0.01051 | 993.23
276.15 K, x1 = 0.01405 | 991.43
276.15 K, x1 = 0.01793 | 989.76
276.15 K, x1 = 0.02241 | 988.02
276.15 K, x1 = 0.03005 | 985.53
276.15 K, x1 = 0.04242 | 982.37
276.15 K, x1 = 0.08929 | 964.42
277.15 K, x1 = 0.00089 | 999.29
277.15 K, x1 = 0.00146 | 998.9
277.15 K, x1 = 0.00269 | 998.01
277.15 K, x1 = 0.00403 | 997.1
277.15 K, x1 = 0.00513 | 996.37
277.15 K, x1 = 0.00761 | 994.85
277.15 K, x1 = 0.01405 | 991.42
278.15 K, x1 = 0.00089 | 999.28
278.15 K, x1 = 0.00146 | 998.89
278.15 K, x1 = 0.00269 | 998.01
278.15 K, x1 = 0.00403 | 997.1
278.15 K, x1 = 0.00513 | 996.37
278.15 K, x1 = 0.00761 | 994.85
278.15 K, x1 = 0.01051 | 993.21
278.15 K, x1 = 0.01405 | 991.41
278.15 K, x1 = 0.01793 | 989.68
278.15 K, x1 = 0.02241 | 987.87
278.15 K, x1 = 0.0248 | 986.88
278.15 K, x1 = 0.03005 | 985.29
278.15 K, x1 = 0.03494 | 983.86
278.15 K, x1 = 0.04241 | 981.87
278.15 K, x1 = 0.04242 | 981.89
278.15 K, x1 = 0.05218 | 979.23
278.15 K, x1 = 0.05887 | 977
278.15 K, x1 = 0.06973 | 972.66
278.15 K, x1 = 0.08929 | 962.87
278.15 K, x1 = 0.1125 | 951.21
278.15 K, x1 = 0.1566 | 929.91
278.15 K, x1 = 0.208 | 910.57
278.15 K, x1 = 0.2408 | 899.29
278.15 K, x1 = 0.3023 | 882.17
278.15 K, x1 = 0.3451 | 872.16
278.15 K, x1 = 0.4045 | 860.22
278.15 K, x1 = 0.4225 | 857.05
278.15 K, x1 = 0.4653 | 849.9
278.15 K, x1 = 0.5344 | 839.61
278.15 K, x1 = 0.6029 | 831.08
278.15 K, x1 = 0.6909 | 821.72
278.15 K, x1 = 0.726 | 818.36
278.15 K, x1 = 0.7999 | 812.56
279.15 K, x1 = 0.00089 | 999.26
279.15 K, x1 = 0.00146 | 998.87
279.15 K, x1 = 0.00269 | 997.99
279.15 K, x1 = 0.00403 | 997.08
279.15 K, x1 = 0.00513 | 996.35
279.15 K, x1 = 0.00761 | 994.79
279.15 K, x1 = 0.01405 | 991.37
280.15 K, x1 = 0.00089 | 999.22
280.15 K, x1 = 0.00146 | 998.83
280.15 K, x1 = 0.00269 | 997.95
280.15 K, x1 = 0.00403 | 997.04
280.15 K, x1 = 0.00513 | 996.31
280.15 K, x1 = 0.00761 | 994.76
280.15 K, x1 = 0.01051 | 993.13
280.15 K, x1 = 0.01405 | 991.32
280.15 K, x1 = 0.01793 | 989.57
280.15 K, x1 = 0.02241 | 987.69
280.15 K, x1 = 0.03005 | 985
280.15 K, x1 = 0.04242 | 981.35
280.15 K, x1 = 0.08929 | 961.26
281.15 K, x1 = 0.00089 | 999.17
281.15 K, x1 = 0.00146 | 998.78
281.15 K, x1 = 0.00269 | 997.9
281.15 K, x1 = 0.00403 | 996.99
281.15 K, x1 = 0.00513 | 996.26
281.15 K, x1 = 0.00761 | 994.7
281.15 K, x1 = 0.01405 | 991.25
282.15 K, x1 = 0.00089 | 999.1
282.15 K, x1 = 0.00146 | 998.72
282.15 K, x1 = 0.00269 | 997.84
282.15 K, x1 = 0.00403 | 996.93
282.15 K, x1 = 0.00513 | 996.19
282.15 K, x1 = 0.00761 | 994.63
282.15 K, x1 = 0.01405 | 991.16
283.15 K, x1 = 0.00089 | 999.02
283.15 K, x1 = 0.00146 | 998.63
283.15 K, x1 = 0.00269 | 997.76
283.15 K, x1 = 0.00403 | 996.85
283.15 K, x1 = 0.00513 | 996.12
283.15 K, x1 = 0.00761 | 994.57
283.15 K, x1 = 0.01405 | 991.06
288.15 K, x1 = 0.00089 | 998.43
288.15 K, x1 = 0.00146 | 998.04
288.15 K, x1 = 0.00269 | 997.17
288.15 K, x1 = 0.00403 | 996.26
288.15 K, x1 = 0.00513 | 995.52
288.15 K, x1 = 0.00761 | 993.96
288.15 K, x1 = 0.01405 | 990.35
288.15 K, x1 = 0.0248 | 985.26
288.15 K, x1 = 0.03494 | 981.48
288.15 K, x1 = 0.04241 | 978.77
288.15 K, x1 = 0.05218 | 974.85
288.15 K, x1 = 0.05887 | 971.81
288.15 K, x1 = 0.06973 | 966.34
288.15 K, x1 = 0.1125 | 943.7
288.15 K, x1 = 0.1566 | 922.09
288.15 K, x1 = 0.208 | 902.66
288.15 K, x1 = 0.2408 | 891.25
288.15 K, x1 = 0.3023 | 874
288.15 K, x1 = 0.3451 | 863.89
288.15 K, x1 = 0.4045 | 851.78
288.15 K, x1 = 0.4225 | 848.63
288.15 K, x1 = 0.4653 | 841.48
288.15 K, x1 = 0.5344 | 830.98
288.15 K, x1 = 0.6029 | 822.27
288.15 K, x1 = 0.6909 | 812.77
288.15 K, x1 = 0.726 | 809.38
288.15 K, x1 = 0.7999 | 803.46
288.15 K, x1 = 0.8711 | 797.8
288.15 K, x1 = 0.9183 | 794.66
298.15 K, x1 = 0.00089 | 996.39
298.15 K, x1 = 0.00146 | 996
298.15 K, x1 = 0.00269 | 995.11
298.15 K, x1 = 0.00403 | 994.19
298.15 K, x1 = 0.00513 | 993.44
298.15 K, x1 = 0.00761 | 991.84
298.15 K, x1 = 0.01405 | 988.08
298.15 K, x1 = 0.0248 | 982.45
298.15 K, x1 = 0.03494 | 977.97
298.15 K, x1 = 0.04241 | 974.54
298.15 K, x1 = 0.05218 | 969.58
298.15 K, x1 = 0.05887 | 965.94
298.15 K, x1 = 0.06973 | 959.94
298.15 K, x1 = 0.1125 | 936.18
298.15 K, x1 = 0.1566 | 914.18
298.15 K, x1 = 0.208 | 894.55
298.15 K, x1 = 0.2408 | 883.06
298.15 K, x1 = 0.3023 | 865.6
298.15 K, x1 = 0.3451 | 855.48
298.15 K, x1 = 0.4045 | 843.11
298.15 K, x1 = 0.4225 | 839.94
298.15 K, x1 = 0.4653 | 832.83
298.15 K, x1 = 0.5344 | 822.05
